Assay results reported in patent publication US6913760B2, “Drug delivery composition” (New England Medical Hospitals, Inc., priority 2001, dated 2005).
Values joined by “and” are separate entries in the source; they are usually repeats but may differ in a detail not shown here. Equal values may be shown once. Marks after values point to notes of the source that are not given here.

Columns and labels:
rats [1] = experiment: Anesthesia after intrathecal polymeric implants, all sites tested (Example 2); format: in vivo; settings: intrathecal rods
rats [2] = experiment: Paw withdrawal test after intrathecal implantation of PLGA rods; format: in vivo; settings: for % MPE, paw withdrawal test, Average: average of 6 rats
[3] = Drug release studies of PLGA 85:15 rods (Example 2); format: physicochemical
rats [4] = experiment: Tail flick test after intrathecal implantation of PLGA rods; format: in vivo; settings: for % MPE, tail flick test, Average: average of 6 rats
[5] = trapezoidal method, individual rats
[6] = trapezoidal method, mean of 6 rats

## C[C@@H](NC(=O)[C@@H](N)Cc1ccc(O)cc1)C(=O)NCC(=O)N[C@@H](Cc1ccccc1)C(=O)NNC(=O)[C@H](Cc1ccccc1)NC(=O)CNC(=O)[C@@H](C)NC(=O)[C@@H](N)Cc1ccc(O)cc1 [Biphalin]
Rats [1]
  duration of anesthesia/analgesia: about 3 days
Rats [2]; 2h, L
  % MPE, paw withdrawal test, Average: 100 % MPE
Rats [2]; 2h, R
  % MPE, paw withdrawal test, Average: 100 % MPE
Rats [2]; 2h, left (L) hind paw, individual rats
  % MPE, paw withdrawal test: 100 % MPE
Rats [2]; 2h, right (R) hind paw, individual rats
  % MPE, paw withdrawal test: 100 % MPE
Rats [2]; 4h, L
  % MPE, paw withdrawal test, Average: 100 % MPE
Rats [2]; 4h, L, individual rats
  % MPE, paw withdrawal test: 100 % MPE
Rats [2]; 4h, R
  % MPE, paw withdrawal test, Average: 100 % MPE
Rats [2]; 4h, R, individual rats
  % MPE, paw withdrawal test: 100 % MPE
Rats [2]; D1, L
  % MPE, paw withdrawal test, Average: 14.47 % MPE
Rats [2]; D1, L, individual rats
  % MPE, paw withdrawal test: 30.27 % MPE and 7.30 % MPE and −1.89 % MPE and 10.92 % MPE and 18.44 % MPE and 21.78 % MPE
Rats [2]; D1, R
  % MPE, paw withdrawal test, Average: 16.56 % MPE
Rats [2]; D1, R, individual rats
  % MPE, paw withdrawal test: 38.69 % MPE and 10.29 % MPE and −2.32 % MPE and 10.84 % MPE and 16.61 % MPE and 25.27 % MPE
Rats [2]; D2, L
  % MPE, paw withdrawal test, Average: 8.34 % MPE
Rats [2]; D2, L, individual rats
  % MPE, paw withdrawal test: 6.46 % MPE and 1.46 % MPE and −5.68 % MPE and 12.97 % MPE and 20.92 % MPE and 13.93 % MPE
Rats [2]; D2, R
  % MPE, paw withdrawal test, Average: 6.03 % MPE
Rats [2]; D2, R, individual rats
  % MPE, paw withdrawal test: 4.92 % MPE and 0.37 % MPE and −6.20 % MPE and 9.44 % MPE and 16.61 % MPE and 11.03 % MPE
Rats [2]; D3, L
  % MPE, paw withdrawal test, Average: 7.52 % MPE
Rats [2]; D3, L, individual rats
  % MPE, paw withdrawal test: −2.04 % MPE and 10.58 % MPE and 12.12 % MPE and 17.06 % MPE and 12.06 % MPE and −4.64 % MPE
Rats [2]; D3, R
  % MPE, paw withdrawal test, Average: 8.40 % MPE
Rats [2]; D3, R, individual rats
  % MPE, paw withdrawal test: 7.54 % MPE and 9.92 % MPE and 9.30 % MPE and 13.64 % MPE and 11.07 % MPE and −1.07 % MPE
Rats [2]; D4, L
  % MPE, paw withdrawal test, Average: 1.86 % MPE
Rats [2]; D4, L, individual rats
  % MPE, paw withdrawal test: 2.27 % MPE and 11.94 % MPE and 2.84 % MPE and 2.14 % MPE and 0.34 % MPE and −8.39 % MPE
Rats [2]; D4, R
  % MPE, paw withdrawal test, Average: 1.02 % MPE
Rats [2]; D4, R, individual rats
  % MPE, paw withdrawal test: −0.78 % MPE and 9.44 % MPE and 2.21 % MPE and −2.14 % MPE and 3.28 % MPE and −5.88 % MPE
Rats [2]; D5, L
  % MPE, paw withdrawal test, Average: 3.36 % MPE
Rats [2]; D5, L, individual rats
  % MPE, paw withdrawal test: 18.18 % MPE and 15.02 % MPE and 2.13 % MPE and −5 % MPE and 4.42 % MPE and −14.60 % MPE
Rats [2]; D5, R
  % MPE, paw withdrawal test, Average: 4.72 % MPE
Rats [2]; D5, R, individual rats
  % MPE, paw withdrawal test: 21.32 % MPE and 17.48 % MPE and 0.37 % MPE and −2.49 % MPE and 8.52 % MPE and −16.91 % MPE
Rats [2]; D6, L
  % MPE, paw withdrawal test, Average: 0.45 % MPE
Rats [2]; D6, L, individual rats
  % MPE, paw withdrawal test: 14.39 % MPE and 2.73 % MPE and −0.35 % MPE and −5.71 % MPE and −0.68 % MPE and −7.66 % MPE
Rats [2]; D6, R
  % MPE, paw withdrawal test, Average: 0.00 % MPE
Rats [2]; D6, R, individual rats
  % MPE, paw withdrawal test: 15.89 % MPE and 2.45 % MPE and −3.32 % MPE and −5.34 % MPE and 0.98 % MPE and −10.6 % MPE
Rats [2]; [5]
  Area under the curve (AUC), paw withdrawal test (left side): 41.94 and 82.35 and 118.40 and 104.74 and 73.61 and 86.69
  Area under the curve (AUC), paw withdrawal test (right side): 41.65 and 79.45 and 111.20 and 93.88 and 75.91 and 110.34
Rats [2]; [6]
  Area under the curve (AUC), paw withdrawal test (left side), Mean: 84.62 *
  Area under the curve (AUC), paw withdrawal test (right side), Mean: 85.40 *
[3]
  release order: two phases
Rats [4]; 2h
  % MPE, tail flick test, Average: 86.67 % MPE
Rats [4]; 2h after intrathecal implantation of PLGA rod, individual rats
  % MPE, tail flick test: 80 % MPE and 96.46 % MPE and 86.99 % MPE and 84.66 % MPE and 76.49 % MPE and 95.43 % MPE
Rats [4]; 4h
  % MPE, tail flick test, Average: 91.63 % MPE
Rats [4]; 4h, individual rats
  % MPE, tail flick test: 85.6 % MPE and 83.65 % MPE and 91.6 % MPE and 100 % MPE (2×) and 88.92 % MPE
Rats [4]; % MPE versus time in days, trapezoidal method, individual rats
  Area under the curve (AUC), tail flick test: 280.84 and 263.66 and 251.97 and 276.26 and 343.10 and 236.51
Rats [4]; % MPE versus time in days, trapezoidal method, mean of 6 rats
  Area under the curve (AUC), tail flick test, Mean: 275.39 *
Rats [4]; D1
  % MPE, tail flick test, Average: 82.2 % MPE
Rats [4]; D1, individual rats
  % MPE, tail flick test: 84.8 % MPE and 71.9346 % MPE and 75.88 % MPE and 100 % MPE and 72.97 % MPE and 87.63 % MPE
Rats [4]; D2
  % MPE, tail flick test, Average: 73.13 % MPE
Rats [4]; D2, individual rats
  % MPE, tail flick test: 73.6 % MPE and 73.297 % MPE and 69.9187 % MPE and 90.48 % MPE and 55.14 % MPE and 76.34 % MPE
Rats [4]; D3
  % MPE, tail flick test, Average: 46.93 % MPE
Rats [4]; D3, individual rats
  % MPE, tail flick test: 32.53 % MPE and 35.15 % MPE and 36.59 % MPE and 73.54 % MPE and 50.27 % MPE and 53.49 % MPE
Rats [4]; D4
  % MPE, tail flick test, Average: 24 % MPE
Rats [4]; D4, individual rats
  % MPE, tail flick test: 22.67 % MPE and 20.16 % MPE and 31.17 % MPE and 33.33 % MPE and 21.08 % MPE and 15.5914 % MPE
Rats [4]; D5
  % MPE, tail flick test, Average: 9.086 % MPE
Rats [4]; D5, individual rats
  % MPE, tail flick test: 9.067 % MPE and 12.26 % MPE and 21.14 % MPE and 3.175 % MPE and 1.081 % MPE and 7.796 % MPE
Rats [4]; D6
  % MPE, tail flick test, Average: 2.009 % MPE
Rats [4]; D6, individual rats
  % MPE, tail flick test: 10.4 % MPE and 5.177 % MPE and 4.065 % MPE and 2.381 % MPE and −4.324 ^ % MPE and −5.645 ^ % MPE
